Common to all, as to type: cell-based
Test [1] has as its system LC3 and p62. Put plainly: Autophagy readouts: LC3/p62 western blot and GFP-RFP-LC3 puncta in HeLa cells. The note with it: 6 h. How it is done: HeLa cells are treated with or without 6J1. After 6 h, cells are collected for western blot analysis of LC3 and p62. […] In addition, ATG5-knockout HeLa cells are transfected with PD-L1-GFP and LC3-RFP, and then treated with or without 6J1 (1 μM) for 24 h. Cells are fixed and imaged. […] Furthermore, LC3B-knockout HeLa cells are transfected with PD-L1-GFP, and then treated with or without 6J1 (1 μM) for 24 h. Cells are fixed and stained with antibodies against Rab5 (FIG. 6d) or Rab27a (FIG. 6e).
(Immunoblotting shows a protein as a band on a membrane.)

Test [2] has as its system PD-L1. Put plainly: Western blot of PD-L1 in total cell lysates and exosomes of HeLa cells. The note with it: for 6J1-induced exosomal PD-L1 secretion: 1 μM, 24 h. How it is done: PD-L1 has been previously shown to be secreted outside the cell through exosomes. HeLa cells are plated on coverslips in 24-well plates and stained with the anti-PD-L1 antibody on ice for 1 h. At the indicated times after being incubated at a warm medium at 37° C., cells are fixed and stained with antibodies against CD63 or Rab27a. […] Cells are treated with or without ionomycin (1 μM) for 48 h. The supernatant is collected and subjected to western blot analysis. […] Since the amphisome, which is formed by the fusion of the autophagosome with the MVB/late endosome, has been implicated in extracellular vesicles secretion, and PD-L1 is found to be associated with LC3B during PD-L1 trafficking (FIG. 2a), inventors examine whether the autophagosome formation is involved in exosomal PD-L1 secretion. Thus, inventors knock out the expression of Rab27A, LC3B or ATG4B in HeLa cells and collect their supernatant respectively for western blot analysis.
Furthermore, HeLa cells are treated with or without Bafilomycin A1 (10 nM), or Torin 1 (100 nM) for 48 h. The cell lysates and supernatant are collected for western blot analysis. […] In contrast, Torin1, an autophagy activator, has little effect on total and exosomal PD-L1 levels (FIG. 2g). […] On the other hand, blockage on the fusion between lysosomes and late endosomes or autophagosomes may induce PD-L1 secretion via exosomes.
(§1) It has previously been shown that interfering with endosomal trafficking promotes exosome secretion. Moreover, PD-L1 has been reported to be enriched in exosomes and secreted outside the cell. Thus, inventors speculate that 6J1 may induce the secretion of the PD-L1 trapped in the endosomal compartments via exosomes. To determine whether 6J1 may induce the secretion of PD-L1 via exosomes, HeLa cells are treated with or without 6J1 (1 μM) for 24 h. The supernatant is collected. Inventors purify the exosomes from the supernatant of HeLa cells by sequential centrifugation. The concentration of extracellular vesicle is determined using a Nanosight nanoparticle analyzer. And HeLa cells are treated with or without 6J1 (1 μM) for 48 h. The cell and supernatant are collected for Western Blot analysis. […] Moreover, the activity of Rab27a in HeLa cells treated with or without 6J1 (1 μM) is examined with a GST-SHD pulldown assay.
Moreover, ATG5- or LC3-knockout HeLa cells are treated with or without 6J1 (1 μM) for 24 h. The supernatant is collected, and the concentration of the extracellular vesicle is determined using a Nanosight nanoparticle analyzer. The exosomes are also collected and subjected to western blot analysis of the EVs marker and PD-L1 in FIG. 7a. The live cells are also labeled with an anti-PD-L1 antibody in FIG. 7b and subjected to flow cytometry analysis in FIG. 7c. […] In addition, inventors assess whether other autophagy-related genes, e.g., ATG4B, ATG7, Beclin1, and Vps34 are involved in 6J1-mediated exosomal PD-L1 secretion. ATG4B-, ATG7-, Beclin1-, or VPS34-knockout HeLa cells are treated with or without 6J1 (1 μM) for 24 h. The supernatant is collected, and the concentration of extracellular vesicle is determined using a Nanosight nanoparticle analyzer. The exosomes are also collected and subjected to western blot analysis of the EVs marker and PD-L1 in FIG. 7d. The live cells are also labeled with an anti-PD-L1 antibody and subjected to flow cytometry analysis in FIG. 7e.

For test [3], the target named is T1, Rab27a (Homo sapiens, UniProt P51159).
T1 construct: western blot analysis of Rab27a in HeLa cells treated with or without 6J1 (1 μM) through a GST-SHD pulldown assay; endogenous in cells; host or cells: HeLa cells
T1 sequence (P51159 1-221): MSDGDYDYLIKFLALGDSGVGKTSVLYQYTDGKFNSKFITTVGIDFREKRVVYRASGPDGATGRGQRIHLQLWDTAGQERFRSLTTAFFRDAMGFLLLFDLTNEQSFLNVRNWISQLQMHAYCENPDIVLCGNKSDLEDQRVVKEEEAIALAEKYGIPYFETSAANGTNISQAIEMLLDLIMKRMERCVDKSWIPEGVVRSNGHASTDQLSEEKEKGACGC
Put plainly: GST-SHD pulldown assay of Rab27a activity. The note with it: HeLa cells, 1 μM. How it is done:
as §1

Test [4] has as its system HeLa cells. The test is described as follows: Fluorescent transferrin conjugates recycling assay. The note with it: compound 3 h, Transferrin-488 25 μg/ml, flow cytometry. How it is done: A DQ-BSA endocytic trafficking assay screens these compounds. DQ-BSA, a self-quenching dye, is internalized into the cytoplasm by endocytosis, after which it is delivered to the lysosomes for degradation to relieve fluorescence-quenching, resulting in bright fluorescence in cells. HeLa cells are plated on 6-well plates and treated with the indicated compound for 3 h. Then, cells are replaced with Trafficking media containing 10 μg/ml DQ-green BSA with or without drugs (1 μM) and incubated at 37° C. in a 5% CO2 humidified cell culture chamber another 6 h followed by Flow cytometry analysis. […] Inventors also test whether these hit compounds can inhibit the recycling endosomal pathway by performing the fluorescent transferrin conjugates recycling assay. Iron-bound transferrin interacts with its receptor (TfR) to trigger the internalization of the iron-transferrin-TfR complex via clathrin-mediated endocytosis. Fe^3+ irons are subsequently dissociated from their ligands in the acidic endosome environment and released into the cytoplasm. […] Thus, the fluorescence intensity of fluorescent transferrin conjugates-labeled cells can reflect the recycling endocytic trafficking process. […] Cells are collected for flow cytometry analysis, and the mean fluorescence intensity of transferrin is quantified.
On the technique in general: In flow cytometry, cells or beads pass a laser one at a time.

[5] abbreviates: GFP-RFP-LC3-expressing HeLa cells, 1 μM.

The structures appear in SMILES notation. “Also recorded” adds a separate entry of the source.

For `OCCOCCN(c1ccccc1)c1nc(N/N=C/c2cccc(I)c2)nc(N2CCOCC2)n1` [Compound 6J1], in test [1] (setting [5]), the “formation of yellow LC3B puncta” value is “significantly induces the formation of yellow LC3B puncta” and the “red-only LC3B puncta” value was “no red-only LC3B puncta are observed”. For the same molecule, the “level of LC3B-II and P62” value in test [1] (HeLa cells, western blot) was “markedly induced an increase in the level of LC3B-II and P62”. Moreover, the “6J1-induced exosomal PD-L1 secretion” value in test [2] (ATG4B-, ATG7-, Beclin1- or VPS34-knockout HeLa cells) is listed as “fails to abolish”. In addition, in test [2] (ATG5- or LC3B-knockout HeLa cells), the “6J1-induced exosomal PD-L1 secretion” value is listed as “Neither ATG5 nor LC3B knockout impairs”. The “exosomal PD-L1 level” value in test [2] (HeLa cells, 48 h, ionomycin 1 μM, Bafilomycin A1 10 nM, Torin 1 100 nM, 6J1 1 μM) is “increases PD-L1 level in exosomes”. Further, the “activity of Rab27a-GTPase” value in test [3] is “significantly increases the activity of Rab27a-GTPase”. For the same molecule, the “recycling endosomal trafficking of transferrin (mean fluorescence intensity)” value in test [4] is listed as “effectively inhibit the recycling endosomal trafficking of transferrin; also recorded: performs best”.

The values above are taken from patent publication US11986482B2, “Method of promoting antitumor or anti-cancer immunity” (City University of Hong Kong, priority 2021, dated 2024).
